For data set [1], the system named is GM3 expression in C32 human melanoma cells. The experiment in a line: GM3 fluorescent-linked immunosorbent assay (FLISA), C32. It counts as cell-based. Particulars: 48 hours. An excerpt: (§1) Inhibition of glucosylceramide synthase activity can be measured with one or more assays. A first assay is a microsomal assay that directly measures the conversion of ceramide to glucosylceramide by HPLC. Microsomes are a source of glucosylceramide synthase activity in the microsomal assay. A second assay is a cell based, phenotypic assay that monitors cell surface expression of the downstream lipid GM3 by antibody mediated immunofluorescence. Specific protocols are provided below.
(§2) This is a phenotypic assay that measures GM3 expression in B16 mouse melanoma or C32 human melanoma cells following treatment with test compounds. Cell surface GM3 expression is determined by antibody mediated fluorescence.
(§3) Compounds are diluted in media and plated in 384 well plates in DMSO. B16 and C32 cells are assayed at densities of 20,000 cells/ml and 62,500 cells/ml, respectively, per well. Each titration curve contains 10 points that are assayed in duplicate on each test run. The plates are incubated for 48 hours at 37° C., 5% CO2, and are then washed once with TBS. Anti-GM3 antibody is added to each well and the plates are then incubated for an additional one hour at room temperature. Plates are subsequently washed twice and incubated for an additional hour with the labeled secondary antibody. Following the final incubation, the plates are washed twice and the fluorescence at λex=D640/20 nm and λem=657 nm is detected on a fluorescent reader.
(§4) The results of the microsomal assays are expressed as “GCS IC50,” which represents the concentration of the compound causing 50% inhibition of glucosylceramide synthase activity. The results of the cell-based assays are expressed as “GM3 B16 IC50” or “GM3 C32 IC50” for the B16 assay and the C32 assay, respectively. These values represent the concentration of the compound causing 50% inhibition of GM3 expression on the cell surface.

Data set [2] has as its target glucosylceramide synthase (Homo sapiens (Human), UniProt Q16739). Nature of the data set: Glucosylceramide synthase activity microsomal assay. Format: biochemical. Particulars: microsomes from A375 human melanoma cells; read-out: GCS IC50.
Text: as §1
An enzyme assay using microsomes as a source of glucosylceramide synthase activity. Fluorescent ceramide substrate is delivered to membrane-bound enzyme as a complex with albumin. After reaction, ceramide and glucosylceramide are separated and quantitated by reverse-phase HPLC with fluorescence detection. Enzymatic activity is assessed using a fluorescent labeled substrate and microsomes as a source of glucosylceramide synthase. C6-NBD-Ceramide is complexed with albumin for delivery to microsomes that are isolated according to the procedure described below. The final concentration of C6-NBD-Ceramide in the stock solution is 0.5 mM; the final concentration of BSA is 0.5 mM. Separation and quantitation of substrate and product (glucosylceramide) are achieved by reverse-phase HPLC with fluorescence detection.
Microsomes are isolated from A375 human melanoma cells. Eight to ten million cells are harvested by trypsinization and washed with ice cold PBS. Cells are resuspended in ice-cold lysis buffer containing protease inhibitors. Cell lysate is sonicated on ice using a probe sonicator. After sonication, the cell lysate is separated from debris by centrifugation at 10,000 g for 10 minutes at 4° C. The supernatant is removed and cleared by additional centrifugation at 100,000 g for 1 hour at 4° C. The pellet is then resuspended in the lysis buffer, aliquoted, and stored at −80° C. prior to use.
The reaction is stopped by the addition of 150 μL of 100 μM C8-ceramide in 50% aq. isopropanol; 10 μL of the final mix is analyzed on HPLC (with fluorescence detector). […] Fluorescence is detected with λex=470 nm and λem=530 nm. […] Both peaks are separated from each other and the baseline and were integrated automatically by the HPLC software. The percent conversion of substrate to product is used as the readout for inhibitor testing. […]

Data set [3] relates to GM3 expression in B16 mouse melanoma cells. Nature of the data set: GM3 fluorescent-linked immunosorbent assay (FLISA), B16. Format: cell-based. Particulars: 48 hours.
Text: as §1, §2, §3, §4

Data set [4] relates to neurological manifestations of GD-3. Particulars: cited from earlier work.

glucosylceramide synthase, sequence (Q16739 whole entry): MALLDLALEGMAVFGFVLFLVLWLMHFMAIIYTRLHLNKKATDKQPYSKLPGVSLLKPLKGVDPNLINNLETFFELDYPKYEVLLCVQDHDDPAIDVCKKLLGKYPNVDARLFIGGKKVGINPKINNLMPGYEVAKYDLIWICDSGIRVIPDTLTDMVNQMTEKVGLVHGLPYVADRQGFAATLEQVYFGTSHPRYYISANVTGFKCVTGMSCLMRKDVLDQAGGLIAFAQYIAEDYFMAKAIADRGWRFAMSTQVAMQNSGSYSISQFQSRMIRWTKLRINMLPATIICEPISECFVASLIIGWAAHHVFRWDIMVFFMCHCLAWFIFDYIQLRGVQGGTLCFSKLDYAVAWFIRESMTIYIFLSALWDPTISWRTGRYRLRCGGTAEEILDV

Consider `CC(C)(NC(=O)OC1CN2CCC1CC2)c1cccc(-c2ccc(F)cc2)c1` (centres unmarked) [Compound 1, Quinuclidin-3-yl (2-(4′-fluoro-[1,1′-biphenyl]-3-yl)propan-2-yl)carbamate], for which the 50% inhibitory concentration (IC50) is 2.1 µM in data set [1], 1.9 µM in data set [2] and 15.6 µM in data set [3].

For the compound `COCCOc1ccc(-c2ccc(C(C)(C)NC(=O)O[C@@H]3CN4CCC3CC4)cc2)cc1` [Compound 3, (S)-quinuclidin-3-yl (2-(4′-(2-methoxyethoxy)-[1,1′-biphenyl]-4-yl)propan-2-yl)carbamate], the figures for the IC50 in data set [1], in data set [2] and in data set [3] were 1.31 µM, 4.14 µM and 43.7 µM, respectively.

With `CC(C)(NC(=O)OC1CN2CCC1CC2)c1cccc(-c2ccccc2)c1` (centres unmarked) [Compound 4, 1-azabicyclo[2.2.2]oct-3-yl [2-(biphenyl-3-yl)propan-2-yl]carbamate], the IC50 in data set [1] amounted to 0.8 µM; in data set [2], 1.5 µM; in data set [3] it was 11.6 µM.

`CC(C)(NC(=O)O[C@@H]1CN2CCC1CC2)c1ccc(-c2ccccc2)cc1` [Compound 5, (S)-quinuclidin-3-yl 2-(biphenyl-4-yl)propan-2-ylcarbamate]: the concentration for half-maximal inhibition (IC50) in data set [1] was found to be 0.3 µM; in data set [2], 1.2 µM; in data set [3], 19.3 µM.

For `O=C(NC1(c2ccc(-c3ccccc3)cc2)CC1)OC1CN2CCC1CC2` (centres unmarked) [Compound 6, Quinuclidin-3-yl 1-(biphenyl-4-yl)cyclopropylcarbamate], the half-maximal inhibitory concentration (IC50) in data set [1] is 0.6 µM; in data set [2], 2.8 µM; in data set [3], 18.1 µM.

`O=C(NC1(c2ccc(-c3ccc(F)cc3)cc2)CC1)O[C@@H]1CN2CCC1CC2` [Compound 7, (S)-quinuclidin-3-yl 1-(4′-fluorobiphenyl-4-yl)cyclopropylcarbamate]: the figures for the IC50 in data set [1], in data set [2] and in data set [3] were 0.4 µM, 1.4 µM and 8.1 µM, respectively.

For `O=C(NC1(c2ccc(-c3ccc(F)cc3F)cc2)CC1)O[C@@H]1CN2CCC1CC2` [Compound 8, (S)-1-azabicyclo[2.2.2]oct-3-yl [1-(2′,4′-difluorobiphenyl-4-yl)cyclopropyl]carbamate], the IC50 in data set [1] is 0.4 µM; in data set [2] it was 1 µM; in data set [3], 7.5 µM.

For `COc1ccc(-c2ccc(C3(NC(=O)OC4CN5CCC4CC5)CC3)cc2)cc1` (centres unmarked) [Compound 9, 1-azabicyclo[2.2.2]oct-3-yl [1-(4′-methoxybiphenyl-4-yl)cyclopropyl]carbamate], the half-maximal inhibitory concentration (IC50) in data set [1] turned out to be 0.4 µM; in data set [2], 1.4 µM; in data set [3], 16.8 µM.

For the compound `CC(C)(NC(=O)OC1CN2CCC1CC2)c1csc(-c2ccc(F)cc2)c1` (centres unmarked) [Compound 10, Quinuclidin-3-yl 2-(5-(4-fluorophenyl)thiophen-3-yl)propan-2-ylcarbamate], the values for the IC50 in data set [1], in data set [2] and in data set [3] were 2.2 µM, 6.4 µM and 21.3 µM, respectively.

Regarding `CC(C)(NC(=O)O[C@@H]1CN2CCC1CC2)c1cc(-c2ccc(F)cc2)ns1` [Compound 11, (S)-quinuclidin-3-yl 2-(3-(4-fluorophenyl)isothiazol-5-yl)propan-2-ylcarbamate], the IC50 in data set [1] is 1.8 µM; in data set [2], 14.9 µM; in data set [3], 81.9 µM.

`CC(C)(NC(=O)O[C@@H]1CN2CCC1CC2)c1nc(-c2ccc(F)cc2)cs1` [Compound 12, (S)-quinuclidin-3-yl 2-(4-(4-fluorophenyl)thiazol-2-yl)propan-2-ylcarbamate]: the IC50 in data set [1] came out at 3.7 µM; in data set [2] it was 20.3 µM; in data set [3], 87.8 µM.

Turning to `COCCOc1ccc(-c2ccc(C(C)(C)NC(=O)OC3CN4CCC3CC4)cc2)cc1` (centres unmarked) [Compound 13, Quinuclidin-3-yl (2-(4′-(2-methoxyethoxy)-[1,1′-biphenyl]-4-yl)propan-2-yl)carbamate], the figures for the IC50 in data set [1], in data set [2] and in data set [3] were 0.7 µM, 3.5 µM and 38.6 µM, respectively.

`COCCOc1cccc(-c2ccc(C(C)(C)NC(=O)O[C@@H]3CN4CCC3CC4)cc2)c1` [Compound 14, (S)-quinuclidin-3-yl (2-(3′-(2-methoxyethoxy)-[1,1′-biphenyl]-4-yl)propan-2-yl)carbamate]: the IC50 in data set [1] was 5.3 µM; in data set [2] it was 10.4 µM; in data set [3], 110 µM.

Consider `COCCOc1ccc(-c2cccc(C(C)(C)NC(=O)OC3CN4CCC3CC4)c2)cc1` (centres unmarked) [Compound 15, Quinuclidin-3-yl (2-(4′-(2-methoxyethoxy)-[1,1′-biphenyl]-3-yl)propan-2-yl)carbamate], for which the figures for the half-maximal inhibitory concentration (IC50) in data set [1], in data set [2] and in data set [3] were 4.9 µM, 26.7 µM and 29.5 µM, respectively.

Regarding `COCCCOc1ccc(-c2ccc(C(C)(C)NC(=O)OC3CN4CCC3CC4)cc2)cc1` (centres unmarked) [Compound 16, Quinuclidin-3-yl (2-(4′-(3-methoxypropoxy)-[1,1′-biphenyl]-4-yl)propan-2-yl)carbamate], the results for the 50% inhibitory concentration (IC50) in data set [1], in data set [2] and in data set [3] were 1.6 µM, 2.4 µM and 66.6 µM, respectively.

`CC(C)(NC(=O)OC1CN2CCC1CC2)c1ccc(-c2ccc(CO)cc2)cc1` (centres unmarked) [Compound 17, Quinuclidin-3-yl (2-(4′-(hydroxymethyl)-[1,1′-biphenyl]-4-yl)propan-2-yl)carbamate]: the IC50 in data set [1] was found to be 21.6 µM; in data set [2], 454 µM; in data set [3] it was 879 µM.

Take `CC(C)(NC(=O)OC1CN2CCC1CC2)c1ccc(-c2ccc(CCO)cc2)cc1` (centres unmarked) [Compound 18, Quinuclidin-3-yl (2-(4′-(2-hydroxyethyl)-[1,1′-biphenyl]-4-yl)propan-2-yl)carbamate]: the half-inhibitory concentration (IC50) in data set [1] came out at 22.3 µM; in data set [2] it was 148 µM; in data set [3] it was 656 µM.

As for `COCCCOc1ccc(-c2nc(C(C)(C)NC(=O)OC3CN4CCC3CC4)cs2)cc1` (centres unmarked) [Compound 19, Quinuclidin-3-yl (2-(2-(4-(3-methoxypropoxy)phenyl)thiazol-4-yl)propan-2-yl)carbamate], the 50% inhibitory concentration (IC50) in data set [1] was 42.6 µM; in data set [2] it was 170 µM; in data set [3], 197 µM.

As to `COCCOc1ccc(-c2nc(C(C)(C)NC(=O)OC3CN4CCC3CC4)cs2)cc1` (centres unmarked) [Compound 20, Quinuclidin-3-yl (2-(2-(4-(2-methoxyethoxy)phenyl)thiazol-4-yl)propan-2-yl)carbamate], the IC50 turned out to be 19.8 µM in data set [1], 360 µM in data set [2] and 106 µM in data set [3].

Take `COCCOc1ccc(-c2ccc(C(C)(C)NC(=O)OC3CN4CCC3CC4)nc2)cc1` (centres unmarked) [Compound 21, Quinuclidin-3-yl 2-(5-(4-(2-methoxyethoxy)phenyl)pyridin-2-yl)propan-2-ylcarbamate]: the results for the IC50 in data set [1], in data set [2] and in data set [3] were 11.1 µM, 50.6 µM and 266 µM, respectively.

For the compound `CC(C)(NC(=O)OC1CN2CCC1CC2)c1ccc(-c2ccc(OCCCC#N)cc2)cc1` (centres unmarked) [Compound 22, Quinuclidin-3-yl (2-(4′-(3-cyanopropoxy)-[1,1′-biphenyl]-4-yl)propan-2-yl)carbamate], the 50% inhibitory concentration (IC50) was 3.2 µM in data set [1], 9.6 µM in data set [2] and 86.5 µM in data set [3].

Take `CC(C)(NC(=O)OC1CN2CCC1CC2)c1ccc(-c2ccc(OCC#N)cc2)cc1` (centres unmarked) [Compound 23, Quinuclidin-3-yl (2-(4′-(cyanomethoxy)-[1,1′-biphenyl]-4-yl)propan-2-yl)carbamate]: the IC50 came out at 0.8 µM in data set [1], 2.6 µM in data set [2] and 47.7 µM in data set [3].

Consider `CCCCN1C[C@H](O)[C@@H](O)[C@H](O)[C@H]1CO` [miglustat], for which, in data set [4] (clinical trials), the “treatment of the neurological manifestations of GD-3” value was “ineffective”. Further, in data set [4] (human, in vivo), the “crossing of the blood-brain barrier” value is listed as “does cross the blood-brain barrier”.

Broadly, the IC50 is the midpoint of a concentration-inhibition curve.

The record behind these values is patent US12083115B2, “Methods for treating neurological symptoms associated with lysosomal storage diseases” (Genzyme Corporation, priority 2020, dated 2024).
